Strand notation (5' to 3'): a small letter for the sugar, then the base; units joined by * are phosphorothioate-linked, units joined directly phosphodiester-linked; [ ] holds rarer units or linkages, { } end groups; capitals alone tell only the bases. k = constrained ethyl (cEt); [5mC] = 5-methylcytosine; d = 2'-deoxy (DNA)
Tested on: Yap1 mRNA
Assay: Dose-dependent inhibition of human Yap1 in A-431 cells (Example 8, 10,000 cells per well, RTS4814)
Format: cell-based
Settings: free uptake, approximately 48 hours, RTS4814; for Yap1 mRNA, % UTC: A-431 cells, 10,000 cells per well; for IC50: A-431 cells, linear regression on log/linear plot
Description: Modified oligonucleotides described in the studies above were tested at various doses in A-431 cells. Cultured A-431 cells at a density of 10,000 cells per well were treated using free uptake with modified oligonucleotides diluted to concentrations described in the tables below. After approximately 48 hours, Yap1 mRNA levels were measured as previously described using the Human Yap1 primer-probe set RTS4814. Yap1 mRNA levels were normalized to total RNA content, as measured by RIBOGREEN®. Results are presented in the tables below as percent control of the amount of Yap1 mRNA relative to untreated control cells (% UTC). IC50s were calculated using a linear regression on a log/linear plot of the data in excel.

| Substance | Yap1 mRNA, % UTC (31.3 nM) [% UTC] | Yap1 mRNA, % UTC (125.0 nM) [% UTC] | Yap1 mRNA, % UTC (500.0 nM) [% UTC] | Yap1 mRNA, % UTC (2000.00 nM) [% UTC] | IC50 [nM] |
| --- | --- | --- | --- | --- | --- |
| 1076483 (kA*k[5mC]*kG*dG*dG*dA*dA*dA*dT*d[5mC]*dA*dT*dA*kT*kA*kG; antisense) [compound 1076483] | 63 | 27 | 11 | 6 | 40 |
| 1075243 (k[5mC]*kT*kT*dA*dG*dT*dA*dA*dG*dA*dA*dT*dT*kG*kT*k[5mC]; antisense) [compound 1075243] | 50 | 18 | 7 | 5 | < 20 |
| 1074443 (kT*k[5mC]*kA*dG*dA*d[5mC]*d[5mC]*dA*dG*dT*dA*dA*dA*kT*k[5mC]*kA; antisense) [compound 1074443] | 69 | 35 | 14 | 8 | 100 |
| 1076293 (kG*k[5mC]*kT*dT*dA*dT*dT*dA*dT*dT*dG*dA*dG*kT*kT*kA; antisense) [compound 1076293] | 49 | 18 | 6 | 5 | < 20 |
| 1074794 (k[5mC]*kA*kA*dA*dT*d[5mC]*dA*dA*dT*dG*dT*dG*d[5mC]*kT*k[5mC]*k[5mC]; antisense) [compound 1074794] | 56 | 23 | 10 | 6 | < 20 |
| 1074313 (antisense kT*kG*kA*dT*dA*dT*dT*d[5mC]*d[5mC]*dG*d[5mC]*dA*dT*kT*kG*k[5mC]) [compound 1074313] | 56 | 21 | 9 | 5 | < 20 |
| 1076491 (kA*kG*k[5mC]*d[5mC]*dA*dA*dA*dA*dT*dA*dG*dG*dT*kG*kA*kG; antisense) [compound 1076491] | 81 | 45 | 21 | 10 | 100 |
| 1075778 (k[5mC]*kA*kT*dT*dT*dA*dT*dA*d[5mC]*d[5mC]*dA*dG*dG*k[5mC]*kA*k[5mC]; antisense) [compound 1075778] | 56 | 29 | 10 | 5 | 30 |
| 1075939 (antisense k[5mC]*kT*kT*dG*dA*dA*dT*dA*dT*dA*dT*dG*dG*kG*kT*kT) [compound 1075939] | 46 | 19 | 10 | 8 | < 20 |
| 1074817 (k[5mC]*kT*kG*dA*dA*dT*dA*dT*dT*dG*d[5mC]*d[5mC]*dA*k[5mC]*k[5mC]*k[5mC]; antisense) [compound 1074817] | 50 | 22 | 13 | 11 | < 20 |
| 1074753 (kT*kA*k[5mC]*dA*dT*dT*dA*dG*dG*dA*dA*d[5mC]*dA*kA*kG*kG; antisense) [compound 1074753] | 42 | 10 | 6 | 4 | < 20 |
| 1074795 (k[5mC]*k[5mC]*kA*dA*dA*dT*d[5mC]*dA*dA*dT*dG*dT*dG*k[5mC]*kT*k[5mC]; antisense) [compound 1074795] | 38 | 14 | 7 | 5 | < 20 |
| 1074274 (antisense kG*kT*kT*d[5mC]*dT*dT*dA*dT*dG*dG*dT*dT*dT*kA*kT*kA) [compound 1074274] | 42 | 14 | 7 | 5 | < 20 |
| 1075748 (kG*kT*kA*dA*dA*dT*d[5mC]*dA*dA*dG*dT*dT*dG*k[5mC]*kA*kT; antisense) [compound 1075748] | 81 | 36 | 12 | 7 | 100 |
| 1075458 (antisense k[5mC]*k[5mC]*kA*d[5mC]*dA*dA*dT*dA*dT*dA*d[5mC]*dT*d[5mC]*k[5mC]*kA*kA) [compound 1075458] | 74 | 43 | 17 | 6 | 100 |
| 1074629 (DNA kG*kA*kG*dA*dT*dT*dT*dT*dA*dT*dG*d[5mC]*d[5mC]*kT*kG*kT; antisense) [compound 1074629] | 21 | 5 | 3 | 3 | < 20 |
| 1075138 (kA*kA*kT*dA*dA*dT*dA*dG*dA*dT*dA*d[5mC]*dT*kG*k[5mC]*k[5mC]; antisense) [compound 1075138] | 66 | 27 | 8 | 5 | 50 |
| 1076291 (kG*kA*kT*dT*dA*dA*dT*dG*dG*dT*dG*dG*d[5mC]*kA*kT*kT; antisense) [compound 1076291] | 75 | 26 | 8 | 5 | 100 |
| 1076299 (k[5mC]*kG*kT*dT*dA*dT*dA*dA*dA*dG*dA*d[5mC]*d[5mC]*k[5mC]*kA*kA; antisense) [compound 1076299] | 68 | 38 | 13 | 5 | 100 |
| 1075686 (kG*kT*kA*dA*dT*dT*dA*d[5mC]*dA*dG*dT*dG*dT*k[5mC]*kT*k[5mC]; antisense) [compound 1075686] | 72 | 44 | 18 | 14 | 100 |
| 1074758 (k[5mC]*kA*kG*dT*dT*dA*dA*dG*d[5mC]*dA*d[5mC]*dT*dT*kT*kT*kA; antisense) [compound 1074758] | 74 | 23 | 8 | 5 | 100 |
| 1076260 (k[5mC]*kT*kT*dA*dA*dT*dT*dT*dA*dA*d[5mC]*dT*d[5mC]*k[5mC]*kT*kG; antisense) [compound 1076260] | 61 | 30 | 12 | 5 | 50 |
| 1074626 (DNA k[5mC]*kT*kG*dT*dT*dA*dT*dG*dA*dA*d[5mC]*d[5mC]*d[5mC]*kT*kT*kG) [compound 1074626] | 54 | 18 | 8 | 5 | < 20 |
| 1074726 (antisense kG*kG*kT*dA*dT*dA*dA*d[5mC]*dT*dG*dG*dG*d[5mC]*kA*kA*kA) [compound 1074726] | 26 | 8 | 4 | 3 | < 20 |
| 1075813 (kA*k[5mC]*kT*dA*dA*dT*dA*dT*dG*d[5mC]*dA*dA*d[5mC]*kT*k[5mC]*kT; antisense) [compound 1075813] | 57 | 31 | 11 | 5 | 40 |
| 1075111 (kT*kA*kG*dG*dA*dA*dT*dA*dT*dG*dG*dG*dT*kA*kG*kT; antisense) [compound 1075111] | 42 | 11 | 6 | 5 | < 20 |
| 1075041 (antisense kG*kA*kT*dT*dA*dT*dA*dA*dA*dG*dA*dG*dG*k[5mC]*kT*k[5mC]) [compound 1075041] | 62 | 31 | 11 | 7 | 50 |
| 1074792 (kA*kT*k[5mC]*dA*dA*dT*dG*dT*dG*d[5mC]*dT*d[5mC]*d[5mC]*kA*kT*k[5mC]; antisense) [compound 1074792] | 48 | 17 | 7 | 5 | < 20 |
| 1075810 (kG*kT*kA*dG*d[5mC]*dA*dA*dT*dA*dG*dA*dG*dT*kA*kA*k[5mC]; antisense) [compound 1075810] | 67 | 28 | 12 | 7 | 100 |

Source: patent US11214803B2, “Modulators of YAP1 expression” (Ionis Pharmaceuticals, Inc., priority 2019, dated 2022)
